Measured values from PubChem BioAssay AID2060338 (Molecular Pharmacology Branch, DTP, NCI, 2025).
Several values for one entry are separate records, joined by “and”; a condition that tells them apart may be missing. Identical values can stand only once.

Test system: 556581-035-R-J1-PDC spheroids with HUVEC/MSC, viability
Test: Anticancer human tumor 556581-035-R-J1-PDC patient-derived ovarian carcinoma cell line growth inhibition [IpAb]
Conditions: for viability, T/C: stronger effect = lower value
Summary of the method: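 Spheroids of 60% malignant cells, 25% HUVEC and 15% MSC were exposed to targeted agents combined with ipatasertib or abemaciclib. Doses started at or near clinical Cmax (10 microM when unknown) and fell in half-log steps.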

[1] = curve of first compound, second compound 0.01 µM
[2] = curve of first compound, second compound 0.0316 µM
[3] = curve of first compound, second compound 0.1 µM
[4] = curve of first compound, second compound 0.316 µM
[5] = curve of first compound, second compound 1 µM
[6] = second compound 0.01 µM, first compound 0.0316 µM
[7] = second compound 0.01 µM, first compound 0.1 µM
[8] = second compound 0.01 µM, first compound 0.316 µM
[9] = second compound 0.01 µM, first compound 1 µM
[10] = second compound 0.0316 µM, first compound 0.0316 µM
[11] = second compound 0.0316 µM, first compound 0.1 µM
[12] = second compound 0.0316 µM, first compound 0.316 µM
[13] = second compound 0.0316 µM, first compound 1 µM
[14] = second compound 0.1 µM, first compound 0.0316 µM
[15] = second compound 0.1 µM, first compound 0.1 µM
[16] = second compound 0.1 µM, first compound 0.316 µM
[17] = second compound 0.1 µM, first compound 1 µM
[18] = second compound 0.316 µM, first compound 0.0316 µM
[19] = second compound 0.316 µM, first compound 0.1 µM
[20] = second compound 0.316 µM, first compound 0.316 µM
[21] = second compound 0.316 µM, first compound 1 µM
[22] = second compound 1 µM, first compound 0.0316 µM
[23] = second compound 1 µM, first compound 0.1 µM
[24] = second compound 1 µM, first compound 0.316 µM
[25] = second compound 1 µM, first compound 1 µM
[26] = second compound 0.01 µM, first compound 3.16 µM
[27] = second compound 0.01 µM, first compound 10 µM
[28] = second compound 0.0316 µM, first compound 3.16 µM
[29] = second compound 0.0316 µM, first compound 10 µM
[30] = second compound 0.1 µM, first compound 3.16 µM
[31] = second compound 0.1 µM, first compound 10 µM
[32] = second compound 0.316 µM, first compound 3.16 µM
[33] = second compound 0.316 µM, first compound 10 µM
[34] = second compound 1 µM, first compound 3.16 µM
[35] = second compound 1 µM, first compound 10 µM
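Note: spheroids exposed to compounds for 7 days before readout.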

Q: What does the source list for `COc1c(OCCCN2CCOCC2)ccc2c3n(c(=NC(=O)c4cnc(N)nc4)nc12)CCN3` + CCN1CCN(Cc2ccc(Nc3ncc(F)c(-c4cc(F)c5nc(C)n(C(C)C)c5c4)n3)nc2)CC1?
A: IC50 [1]: 14.7 nM; IC50 [2]: 18.8 nM; IC50 [3]: 21.9 nM; IC50 [4]: 21.2 nM; IC50 [5]: 12.4 nM; viability, T/C (second compound 0.01 µM, first compound 0.00316 µM): 76.3%; viability, T/C (second compound 0.01 µM, first compound 0.01 µM): 49.2%; viability, T/C [6]: 39.6%; viability, T/C [7]: 29.9%; viability, T/C [8]: 12.4%; viability, T/C [9]: 3.84%; viability, T/C (second compound 0.0316 µM, first compound 0.00316 µM): 77.2%; viability, T/C (second compound 0.0316 µM, first compound 0.01 µM): 53.8%; viability, T/C [10]: 43.9%; viability, T/C [11]: 32.4%; viability, T/C [12]: 11.2%; viability, T/C [13]: 2.33%; viability, T/C (second compound 0.1 µM, first compound 0.00316 µM): 84%; viability, T/C (second compound 0.1 µM, first compound 0.01 µM): 60.9%; viability, T/C [14]: 40.3%; viability, T/C [15]: 34.4%; viability, T/C [16]: 11.3%; viability, T/C [17]: 2%; viability, T/C (second compound 0.316 µM, first compound 0.00316 µM): 84.9%; viability, T/C (second compound 0.316 µM, first compound 0.01 µM): 63.2%; viability, T/C [18]: 41.2%; viability, T/C [19]: 29.9%; viability, T/C [20]: 7.71%; viability, T/C [21]: 3.06%; viability, T/C (second compound 1 µM, first compound 0.00316 µM): 59.9%; viability, T/C (second compound 1 µM, first compound 0.01 µM): 51.7%; viability, T/C [22]: 40.4%; viability, T/C [23]: 29.8%; viability, T/C [24]: 12%; viability, T/C [25]: 2.02%

Q: Which results are given for `Cc1nc(NC(=O)N2CCCC2C(N)=O)sc1-c1ccnc(C(C)(C)C(F)(F)F)c1` (configuration not stated) + CCN1CCN(Cc2ccc(Nc3ncc(F)c(-c4cc(F)c5nc(C)n(C(C)C)c5c4)n3)nc2)CC1?
A: IC50 [1]: 388 nM; IC50 [2]: 274 nM; IC50 [3]: 401 nM; IC50 [4]: < 31.6 nM; IC50 [5]: < 31.6 nM; viability, T/C [6]: 87.3%; viability, T/C [7]: 65.6%; viability, T/C [8]: 47.3%; viability, T/C [9]: 39.6%; viability, T/C [26]: 33.2%; viability, T/C [27]: 10.3%; viability, T/C [10]: 70.4%; viability, T/C [11]: 58.8%; viability, T/C [12]: 42.9%; viability, T/C [13]: 42%; viability, T/C [28]: 27.5%; viability, T/C [29]: 9.58%; viability, T/C [14]: 67.8%; viability, T/C [15]: 62%; viability, T/C [16]: 52.7%; viability, T/C [17]: 39.5%; viability, T/C [30]: 25.2%; viability, T/C [31]: 7.2%; viability, T/C [18]: 46.7%; viability, T/C [19]: 47.9%; viability, T/C [20]: 40.8%; viability, T/C [21]: 36.7%; viability, T/C [32]: 31.2%; viability, T/C [33]: 11.3%; viability, T/C [22]: 48.9%; viability, T/C [23]: 37.9%; viability, T/C [24]: 39%; viability, T/C [25]: 30.2%; viability, T/C [34]: 20.2%; viability, T/C [35]: 9%

Q: For `C=CC(=O)N1CCN(c2nc(=O)n(-c3c(C)ccnc3C(C)C)c3nc(-c4c(O)cccc4F)c(F)cc23)C(C)C1` (configuration not stated), which viability, T/C (compound 0.0316 µM) is on record?
A: 107% and 97.3%

Q: What about the viability, T/C (compound 0.1 µM) of the same molecule?
A: 97.5% and 113%

Q: What about the viability, T/C (compound 0.316 µM) of the same molecule?
A: 113% and 118%

Q: What about the viability, T/C (compound 1 µM) of the same molecule?
A: 106% and 105%

Q: And the viability, T/C (compound 3.16 µM)?
A: 102% and 126%

Q: What about the viability, T/C (compound 10 µM) of the same molecule?
A: 31.9% and 31.5%

Q: What about the IC50 (curve of compound) of the same molecule?
A: 7440 nM and 7680 nM

Q: What does the source list for `Cn1nccc1Nc1nccc(-c2ccn(C(CO)c3ccc(Cl)c(F)c3)c(=O)c2)n1` (configuration not stated) + CCN1CCN(Cc2ccc(Nc3ncc(F)c(-c4cc(F)c5nc(C)n(C(C)C)c5c4)n3)nc2)CC1?
A: IC50 [1]: 9080 nM; IC50 [2]: 6090 nM; IC50 [3]: 5330 nM; IC50 [4]: 7520 nM; IC50 [5]: 5340 nM; viability, T/C [6]: 110%; viability, T/C [7]: 145%; viability, T/C [8]: 127%; viability, T/C [9]: 109%; viability, T/C [26]: 95.4%; viability, T/C [27]: 45.8%; viability, T/C [10]: 119%; viability, T/C [11]: 140%; viability, T/C [12]: 128%; viability, T/C [13]: 98.5%; viability, T/C [28]: 72%; viability, T/C [29]: 34.8%; viability, T/C [14]: 107%; viability, T/C [15]: 123%; viability, T/C [16]: 134%; viability, T/C [17]: 119%; viability, T/C [30]: 63.4%; viability, T/C [31]: 33.8%; viability, T/C [18]: 92.2%; viability, T/C [19]: 103%; viability, T/C [20]: 144%; viability, T/C [21]: 101%; viability, T/C [32]: 87.3%; viability, T/C [33]: 37.9%; viability, T/C [22]: 78%; viability, T/C [23]: 85.5%; viability, T/C [24]: 128%; viability, T/C [25]: 72.3%; viability, T/C [34]: 71.5%; viability, T/C [35]: 27.2%

Q: Which results are given for `Cc1nc(NC(=O)N2CCCC2C(N)=O)sc1-c1ccnc(C(C)(C)C(F)(F)F)c1` (configuration not stated) + CC(C)NCC(C(=O)N1CCN(c2ncnc3c2C(C)CC3O)CC1)c1ccc(Cl)cc1?
A: IC50 [3]: 504 nM; IC50 [4]: 206 nM; IC50 [5]: 48.4 nM; IC50 (curve of first compound, second compound 3.16 µM): < 31.6 nM; IC50 (curve of first compound, second compound 10 µM): < 31.6 nM; viability, T/C [14]: 81.8%; viability, T/C [15]: 68.6%; viability, T/C [16]: 56.8%; viability, T/C [17]: 38.8%; viability, T/C [30]: 31%; viability, T/C [31]: 11.3%; viability, T/C [18]: 62%; viability, T/C [19]: 57.6%; viability, T/C [20]: 40.3%; viability, T/C [21]: 39.2%; viability, T/C [32]: 33%; viability, T/C [33]: 11.3%; viability, T/C [22]: 48.5%; viability, T/C [23]: 53.8%; viability, T/C [24]: 39.8%; viability, T/C [25]: 36.2%; viability, T/C [34]: 27.4%; viability, T/C [35]: 16.2%; viability, T/C (second compound 3.16 µM, first compound 0.0316 µM): 41.8%; viability, T/C (second compound 3.16 µM, first compound 0.1 µM): 43.2%; viability, T/C (second compound 3.16 µM, first compound 0.316 µM): 43.5%; viability, T/C (second compound 3.16 µM, first compound 1 µM): 35.6%; viability, T/C (second compound 3.16 µM, first compound 3.16 µM): 24.6%; viability, T/C (second compound 3.16 µM, first compound 10 µM): 10.7%; viability, T/C (second compound 10 µM, first compound 0.0316 µM): 38.6%; viability, T/C (second compound 10 µM, first compound 0.1 µM): 42.4%; viability, T/C (second compound 10 µM, first compound 0.316 µM): 35.7%; viability, T/C (second compound 10 µM, first compound 1 µM): 27.2%; viability, T/C (second compound 10 µM, first compound 3.16 µM): 22.9%; viability, T/C (second compound 10 µM, first compound 10 µM): 4.11%
